Values quoted from earlier work as cited in US20230414778A1, “COMBINATION OF ANTIBODY-DRUG CONJUGATE WITH ANTI-SIRPalpha ANTIBODY” (DAIICHI SANKYO COMPANY, LIMITED, priority 2020, published 2023).

Target: T1, Topoisomerase I (Homo sapiens, UniProt P11387)
T1 sequence (P11387 1-765): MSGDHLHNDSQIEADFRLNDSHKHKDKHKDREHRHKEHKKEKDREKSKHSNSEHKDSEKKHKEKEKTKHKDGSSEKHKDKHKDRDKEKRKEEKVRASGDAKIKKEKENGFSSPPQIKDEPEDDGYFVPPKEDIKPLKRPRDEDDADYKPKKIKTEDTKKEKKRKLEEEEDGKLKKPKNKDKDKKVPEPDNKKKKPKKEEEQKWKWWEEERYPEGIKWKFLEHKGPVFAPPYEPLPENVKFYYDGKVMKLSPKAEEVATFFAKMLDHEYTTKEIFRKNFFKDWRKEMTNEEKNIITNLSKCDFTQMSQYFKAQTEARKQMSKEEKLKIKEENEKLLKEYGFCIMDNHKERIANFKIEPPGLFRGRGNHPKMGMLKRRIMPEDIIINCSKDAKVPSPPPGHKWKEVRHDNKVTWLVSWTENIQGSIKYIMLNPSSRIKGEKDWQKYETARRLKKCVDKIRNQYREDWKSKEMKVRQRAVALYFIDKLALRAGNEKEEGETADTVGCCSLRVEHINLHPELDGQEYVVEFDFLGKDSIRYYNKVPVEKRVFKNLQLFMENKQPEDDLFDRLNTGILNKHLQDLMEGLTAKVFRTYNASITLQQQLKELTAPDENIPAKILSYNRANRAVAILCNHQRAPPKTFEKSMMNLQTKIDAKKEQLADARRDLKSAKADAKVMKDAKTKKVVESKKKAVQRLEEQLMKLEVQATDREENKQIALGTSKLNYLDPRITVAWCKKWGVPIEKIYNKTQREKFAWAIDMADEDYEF
Conditions: Ogitani Y. et al., Clinical Cancer Research 2016; cited from earlier work

CC[C@@]1(O)C(=O)OCc2c1cc1n(c2=O)Cc2c-1nc1cc(F)c(C)c3c1c2[C@@H](NC(=O)CO)CC3 [compound (A)]
topoisomerase I inhibitory effect: TpoI inhibitor
